The NIST ThermoML archive (doi:10.1021/je7003098)
Numbers after ± are expanded uncertainties.

Details: for mass density: 101.33 kPa, Liquid, Pycnometric method; for surface tension liquid-gas: Ring tensiometer

CCCCCCCCCCCCCC[P+](CCCCCC)(CCCCCC)CCCCCC.O=S(=O)([N-]S(=O)(=O)C(F)(F)F)C(F)(F)F
Details	mass density [kg/m3]	surface tension liquid-gas [mN/m]
298.15 K	1050.1 ± 25	–
298.2 K	–	33.08 ± 4.7
303 K	–	32.57 ± 4.6
303.15 K	1048.3 ± 25	–
308 K	–	32.15 ± 4.5
308.15 K	1045.2 ± 25	–
313 K	–	31.77 ± 4.5
313.15 K	1042 ± 25	–
318 K	–	31.4 ± 4.4
318.15 K	1039.2 ± 25	–
323.15 K	1035.6 ± 25	–
323.3 K	–	31.09 ± 4.4
327.9 K	–	30.65 ± 4.3
328.15 K	1032.9 ± 25	–
332.9 K	–	30.28 ± 4.3
333.15 K	1029.6 ± 25	–
338.9 K	–	29.68 ± 4.2
344.2 K	–	29.45 ± 4.2
349.8 K	–	28.93 ± 4.1

CCCCCCCCCC[N+](C)(C)C.O=S(=O)([N-]S(=O)(=O)C(F)(F)F)C(F)(F)F
Details	mass density [kg/m3]	surface tension liquid-gas [mN/m]
298.15 K	1226.3 ± 26	–
300.96 K	–	35.42 ± 5.1
302.95 K	–	35.12 ± 5
303.15 K	1222.2 ± 26	–
307.75 K	–	34.81 ± 5
308.15 K	1218.6 ± 26	–
312.28 K	–	34.55 ± 4.9
313.15 K	1214.7 ± 26	–
318.08 K	–	34.2 ± 4.9
318.15 K	1210.6 ± 26	–
323.15 K	1206.3 ± 26	–
324.03 K	–	33.71 ± 4.8
328.15 K	1204.7 ± 26	–
330.53 K	–	33.36 ± 4.8
333.15 K	1200.3 ± 26	–
337.12 K	–	32.82 ± 4.7
342.53 K	–	32.51 ± 4.6
347.26 K	–	32.23 ± 4.6

CCCCCCCC[N+](C)(CCCCCCCC)CCCCCCCC.O=S(=O)([N-]S(=O)(=O)C(F)(F)F)C(F)(F)F
Details	mass density [kg/m3]	surface tension liquid-gas [mN/m]
298.15 K	1082.3 ± 26	–
299.46 K	–	29.06 ± 4.2
303.15 K	1080.3 ± 26	–
303.25 K	–	28.93 ± 4.1
308.15 K	1077.3 ± 26	–
310.18 K	–	28.53 ± 4.1
313.15 K	1073.8 ± 26	–
313.77 K	–	28.23 ± 4
318.15 K	1073.8 ± 26	–
318.67 K	–	27.85 ± 4
321 K	–	27.63 ± 4
323.15 K	1067.2 ± 26	–
326.3 K	–	27.18 ± 3.9
328.15 K	1063.9 ± 26	–
329.6 K	–	27.01 ± 3.9
333.15 K	1061.1 ± 26	–
336.79 K	–	26.69 ± 3.8

CCCCCC[N+](C)(C)CCC.O=S(=O)([N-]S(=O)(=O)C(F)(F)F)C(F)(F)F
Details	mass density [kg/m3]	surface tension liquid-gas [mN/m]
298.15 K	1284.6 ± 26	–
300.1 K	–	36.74 ± 5.2
302 K	–	36.58 ± 5.2
303.1 K	–	36.49 ± 5.2
303.15 K	1281.6 ± 26	–
304 K	–	36.42 ± 5.2
306 K	–	36.25 ± 5.2
308.1 K	–	36.11 ± 5.2
308.15 K	1277.5 ± 26	–
312.3 K	–	35.78 ± 5.1
313.15 K	1273.2 ± 26	–
315.2 K	–	35.55 ± 5.1
318 K	–	35.33 ± 5
318.15 K	1269.9 ± 26	–
320.6 K	–	35.14 ± 5
322.6 K	–	35.01 ± 5
323.15 K	1266 ± 26	–
328.15 K	1266 ± 26	–
333.15 K	1258.5 ± 26	–

CCCCCC[n+]1ccn(C)c1.O=S(=O)([N-]S(=O)(=O)C(F)(F)F)C(F)(F)F
Details	surface tension liquid-gas [mN/m]
297.22 K	35.98 ± 5.1
301.22 K	35.79 ± 5
305.48 K	35.54 ± 5
309.14 K	35.35 ± 5
312.48 K	35.15 ± 4.9
316.28 K	35.03 ± 4.9
319.87 K	34.84 ± 4.9
323.57 K	34.63 ± 4.9
327.48 K	34.45 ± 4.9
331.24 K	34.26 ± 4.8
334.91 K	34.07 ± 4.8
340.92 K	33.76 ± 4.8
346.42 K	33.44 ± 4.7

CCn1cc[n+](C)c1.O=S(=O)([N-]S(=O)(=O)C(F)(F)F)C(F)(F)F
Details	surface tension liquid-gas [mN/m]
298.7 K	41.62 ± 5.9
302.05 K	41.38 ± 5.8
305.74 K	41.19 ± 5.8
309.16 K	41.02 ± 5.8
312.6 K	40.87 ± 5.8
316.2 K	40.67 ± 5.7
319.33 K	40.5 ± 5.7
322.63 K	40.39 ± 5.7
326.13 K	40.19 ± 5.6
331.02 K	39.94 ± 5.6

CCCCn1cc[n+](C)c1.F[P-](F)(F)(F)(F)F [1-butyl-3-methylimidazolium hexafluorophosphate]
Details	surface tension liquid-gas [mN/m]
298.15 K	47.92 ± 6.8
301.32 K	47.71 ± 6.8
305.79 K	47.48 ± 6.7
309.6 K	47.29 ± 6.7
315.44 K	46.92 ± 6.7
319.95 K	46.55 ± 6.6
325.06 K	46.15 ± 6.6
328.68 K	46.04 ± 6.5
332.22 K	45.81 ± 6.5
335.61 K	45.41 ± 6.5

CCn1cc[n+](C)c1.O=S(=O)([O-])C(F)(F)F [1-ethyl-3-methylimidazolium trifluoromethanesulfonate]
Details	surface tension liquid-gas [mN/m]
296.28 K	44.46 ± 6.2
300.79 K	44.36 ± 6.2
304.95 K	44.2 ± 6.2
308.14 K	44.07 ± 6.2
312.41 K	43.9 ± 6.2
317.15 K	43.81 ± 6.2
321.93 K	43.64 ± 6.1
328.68 K	43.37 ± 6.1
333.64 K	43.15 ± 6.1
337.82 K	42.99 ± 6
343.49 K	42.82 ± 6
347.91 K	42.62 ± 6
353.56 K	42.49 ± 6
